In brackets after ≈: the same amount, converted by molar mass.
Experiment: Ichthyotoxicity against Oryzias latipes after 24 hrs
Format: organism-based
Details: in vivo, read-out: TLm

With `CC(C)=CCC/C(C)=C/C=C/C(C)=C/[C@@H]1C[C@@]2(C(O)O1)[C@H](CCCO)/C(=C(/C)C=O)CC[C@]2(C)O` (some centres not stated) the LC50 at 24 h was 5.5 µg/mL (≈ 11.3 µM).

With `CCCCCCCCCC(=O)OCCC[C@@H]1/C(=C(/C)C=O)CC[C@](C)(O)[C@@]1(C)CC/C=C(\C)[C@@H](C/C=C(\C)CCC=C(C)C)OC(C)=O` the LC50 at 24 h was > 30 µg/mL.

In the case of `CC(=O)OCCC[C@@H]1/C(=C(/C)C=O)CC[C@](C)(O)[C@@]1(C)CC/C=C(\C)[C@@H](C/C=C(\C)CCC=C(C)C)OC(C)=O`, the LC50 at 24 h is reported as > 10 µg/mL.

With `CC(C)=CCC/C(C)=C/C=C/C(C)=C/[C@H]1C[C@@]2(C(O)O1)[C@H](CCCO)/C(=C(/C)C=O)CC[C@]2(C)O` (some centres not stated) [BELACHINAL] the LC50 at 24 h was 2.8 µg/mL (≈ 5.75 µM).

In the case of `CCCCCCCCCCCCCC(=O)OCCC[C@@H]1/C(=C(/C)C=O)CC[C@](C)(O)[C@@]1(C)CC/C=C(\C)[C@@H](C/C=C(\C)CCC=C(C)C)OC(C)=O`, the LC50 at 24 h is reported as > 10 µg/mL.

`C=C1CC/C=C(\C)C(=O)[C@H](O)[C@@H]2[C@@H]1CC2(C)C` [BUDDLEDIN B] gave an LC50 at 24 h of 1.2 µg/mL (≈ 5.12 µM).

Work on `CC(C)=CCC/C(C)=C/C[C@@H](O)/C(C)=C/CC[C@@]1(C)[C@H](CCCO)/C(=C(/C)C=O)CC[C@]1(C)O` [ISOIRIDOGERMANAL] yielded an LC50 at 24 h of 9.3 µg/mL (≈ 19.6 µM).

Work on `CC(=O)OCCC[C@@H]1/C(=C(/C)C=O)CC[C@](C)(O)[C@@]1(C)CC/C=C(\C)[C@H](O)C/C=C(\C)CCC=C(C)C` yielded an LC50 at 24 h of 0.8 µg/mL (≈ 1.55 µM).

With `CC(C)=CCC/C(C)=C/C=C/C(C)=C/[C@H]1C[C@@]23[C@H](OCCC[C@@H]2/C(=C(/C)C=O)CC[C@]3(C)O)O1` [EPIANHYDROBELACHINAL] the LC50 at 24 h was > 10 µg/mL.

In the case of `CCCCCCCCCCCCCC(=O)OCCC[C@@H]1/C(=C(/C)C=O)CC[C@](C)(O)[C@@]1(C)CC/C=C(\C)[C@H](O)C/C=C(\C)CCC=C(C)C` [IRISTECTORENE B], the LC50 at 24 h is reported as 3.5 µg/mL (≈ 5.11 µM).

For `CC(C)=CCC/C(C)=C/C=C/C(C)=C/[C@@H]1C[C@@]23[C@H](OCCC[C@@H]2/C(=C(/C)C=O)CC[C@]3(C)O)O1` [ANHYDROBELACHINAL], the LC50 at 24 h was > 10 µg/mL.

Compound `C=C(/C=C/C=C(\C)CCC=C(C)C)[C@@H]1CC[C@]2([C@H](CCCO)/C(=C(/C)C=O)CC[C@]2(C)O)[C@@H]1O` has an LC50 at 24 h of 1.6 µg/mL (≈ 3.4 µM).

Source: ChEMBL document CHEMBL1157990, “Iridal-type triterpenoids with ichthyotoxic activity from belamcanda chinensis” (J Nat Prod, 1999)
